{"source": "patent US9708315B2", "about": "“1,2,4-triazolo[4,3-a]pyridine compounds and their use as positive allosteric modulators of MGLUR2 receptors” (Janssen Pharmaceutica NV, priority 2013, dated 2017)", "key": {"human mGlu2 receptor": {"target": "T1, human mGlu2 receptor (Homo sapiens, UniProt Q14416)", "T1 construct": "expressed in transfected cells; host or cells: CHO cells", "T1 sequence (Q14416 19-872)": "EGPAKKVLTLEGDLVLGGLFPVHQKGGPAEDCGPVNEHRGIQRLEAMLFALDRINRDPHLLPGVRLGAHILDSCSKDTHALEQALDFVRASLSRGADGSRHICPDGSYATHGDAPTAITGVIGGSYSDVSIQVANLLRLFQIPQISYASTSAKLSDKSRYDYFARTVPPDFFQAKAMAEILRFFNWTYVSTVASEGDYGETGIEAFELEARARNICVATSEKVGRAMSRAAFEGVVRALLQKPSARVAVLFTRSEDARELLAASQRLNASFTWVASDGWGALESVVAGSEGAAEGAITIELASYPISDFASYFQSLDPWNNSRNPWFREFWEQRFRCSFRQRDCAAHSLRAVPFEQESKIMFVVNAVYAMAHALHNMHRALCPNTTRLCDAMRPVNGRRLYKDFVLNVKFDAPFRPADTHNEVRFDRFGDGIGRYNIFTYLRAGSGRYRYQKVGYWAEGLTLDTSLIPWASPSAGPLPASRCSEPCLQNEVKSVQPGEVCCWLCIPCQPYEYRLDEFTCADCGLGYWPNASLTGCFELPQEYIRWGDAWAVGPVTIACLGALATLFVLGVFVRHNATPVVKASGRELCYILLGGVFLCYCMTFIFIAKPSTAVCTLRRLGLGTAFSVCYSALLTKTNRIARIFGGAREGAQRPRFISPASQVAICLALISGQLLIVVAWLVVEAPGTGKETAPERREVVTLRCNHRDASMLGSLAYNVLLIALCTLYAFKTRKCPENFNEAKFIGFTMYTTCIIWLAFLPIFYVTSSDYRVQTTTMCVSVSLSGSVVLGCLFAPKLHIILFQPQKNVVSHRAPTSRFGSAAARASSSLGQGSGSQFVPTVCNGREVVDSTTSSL", "experiment": "[35S]GTPγS binding assay, mGluR2 PAM", "type": "biochemical", "settings": "in presence of glutamate at EC20; EC50 expressed in M; read-out: GTPγS - hmGluR2 PAM pEC50 (converted)", "description": "[^35S]GTPγS Binding Assay\nThe [^35S]GTPγS binding assay is a functional membrane-based assay used to study G-protein coupled receptor (GPCR) function whereby incorporation of a non-hydrolysable form of GTP, [^35S]GTPγS (guanosine 5′-triphosphate, labelled with […] ^35S), is measured.\nCells were then collected by scraping in PBS and cell suspension was centrifuged (10 min at 4000 RPM in benchtop centrifuge). Supernatant was discarded and pellet gently resuspended in 50 mM Tris-HCl, pH 7.4 by mixing with a vortex and pipetting up and down. The suspension was centrifuged at 16,000 RPM (Sorvall RC-5C plus rotor SS-34) for 10 minutes and the supernatant discarded. The pellet was homogenized in 5 mM Tris-HCl, pH 7.4 using an ultra-turrax homogenizer and centrifuged again (18,000 RPM, 20 min, 4° C.). The final pellet was resuspended in 50 mM Tris-HCl, pH 7.4 and stored at −80° C. in appropriate aliquots before use. Protein concentration was determined by the Bradford method (Bio-Rad, USA) with bovine serum albumin as standard.\nMeasurement of mGluR2 positive allosteric modulatory activity of test compounds was performed as follows. Test compounds and glutamate were diluted in assay buffer containing 10 mM HEPES acid, 10 mM HEPES salt, pH 7.4, 100 mM NaCl, 3 mM MgCl2 and 10 μM GDP. Human mGlu2 receptor-containing membranes were thawed on ice and diluted in assay buffer supplemented with 14 μg/ml saponin. Membranes were pre-incubated with compound alone or together with a predefined (˜EC20) concentration of glutamate (PAM assay) for 30 min at 30° C. After addition of [^35S]GTPγS (f c. 0.1 nM), assay mixtures were shaken briefly and further incubated to allow [^35S]GTPγS incorporation on activation (30 minutes, 30° C.). Final assay mixtures contained 7 μg of membrane protein in 10 mM HEPES acid, 10 mM HEPES salt, pH 7.4, 100 mM NaCl, 3 mM MgCl2, 10 μM GDP and 2 μg/ml saponin. […] Filters were washed 6 times with ice-cold 10 mM NaH2PO4/10 mM Na2HPO4, pH 7.4. Filters were then air-dried, and 40 μl of liquid scintillation cocktail (Microscint-O) was added to each well. Membrane-bound radioactivity was counted in a Microplate Scintillation and Luminescence Counter from Perkin Elmer.\nThe concentration-response curves of representative compounds of the present invention—obtained in the presence of EC20 of mGluR2 agonist glutamate to determine positive allosteric modulation (PAM)—were generated using the Lexis software interface (developed at J&J). Data were calculated as % of the control glutamate response, defined as the maximal response that is generated upon addition of glutamate alone. Sigmoid concentration-response curves plotting these percentages versus the log concentration of the test compound were analyzed using non-linear regression analysis. The concentration producing half-maximal effect is then calculated as EC50.\nThe pEC50 values below were calculated as the −log EC50, when the EC50 is expressed in M. Emax is defined as relative maximal effect (i.e. maximal % effect relative to the control glutamate response).\nAll compounds were tested in presence of mGluR2 agonist glutamate at a predetermined EC20 concentration, to determine positive allosteric modulation. pEC50 values were calculated from a concentration-response experiment of at least 8 concentrations."}, "male NMRI mice": {"tested_on": "male NMRI mice", "experiment": "Phencyclidine (PCP)-induced hyperlocomotion in mice", "type": "in vivo", "settings": "Mus musculus, PO, PCP 5 mg/kg s.c., read-out: ED50 PCP (inhibition of PCP-induced hyperlocomotion)", "description": "On the day of experiments, the mice were brought into the procedural room. They were housed individually and allowed to acclimate for at least a half hour prior to testing. Although the studies were conducted during the light cycle (from 8:00 to 16:00 h), the procedure room was only sparsely lit (3 to 30 LUX) to provide better contrast for the video tracking. Local lighting was used for the injection procedures. During each trial, an individual mouse was placed in an open field arena (grey PVC cylinder with a height of 40 cm and a diameter of 22.5 cm). Each arena was placed on an infrared LED (8×8 LEDs)-lit box (white PVC squared box; 40×40 cm^2; height 12.5 cm). Each mouse was placed in the center of the arena and allowed to explore freely for 30 min. After each trial, the arena was cleaned with a wet and subsequently with a dry cleaning cloth. […] Animal behavior was recorded and analyzed using the Noldus Ethovision XT Video Tracking System (Version 3.1; Noldus, Wageningen, The Netherlands). The total distance traveled (cm) was calculated. […]\nTest compound or solvent was administered at a pre-defined time before measurement (standard: 30 min) to male NMRI mice that were challenged with phencyclidine (PCP; 5 mg/kg, s.c.) 30 min before measurement. Activity was measured for a period of 30 min."}}}
{"smiles": "C[C@H](Oc1ccc(F)cc1F)c1ccn2c(CC3CC3)nnc2c1C(F)(F)F", "note": "[Compound 6, 3-(Cyclopropylmethyl)-7-[(1S)-1-(2,4-difluorophenoxy)ethyl]-8-(trifluoromethyl)[1,2,4]triazolo[4,3-a]pyridine]", "values": [{"measurement": "EC50", "setting": "human mGlu2 receptor", "value": 40.7, "unit": "nM"}, {"measurement": "ED50", "setting": "male NMRI mice", "value": 28.3, "unit": "mg/kg"}]}
